Reference: US11866450B2, “Modulators of Cystic Fibrosis Transmembrane Conductance regulator, pharmaceutical compositions, methods of treatment, and process for making the modulators” (priority 2018, dated 2024)
Read-outs that look alike come from different tables or passages of the source.

Legend:
[1] = snar bond
[2] = target: CFTR-mediated chloride transport (Homo sapiens, UniProt P13569); type: cell-based; conditions: enteroid cells incubated with test compound 18-24 hours, acute 10 μM forskolin and 300 nM Compound III; for Max. Activity: % of chloride transport with 3 μM Compound A, 3 μM Compound II and 300 nM acute Compound III triple combination control
Sequence of CFTR-mediated chloride transport (P13569 whole entry, looked up): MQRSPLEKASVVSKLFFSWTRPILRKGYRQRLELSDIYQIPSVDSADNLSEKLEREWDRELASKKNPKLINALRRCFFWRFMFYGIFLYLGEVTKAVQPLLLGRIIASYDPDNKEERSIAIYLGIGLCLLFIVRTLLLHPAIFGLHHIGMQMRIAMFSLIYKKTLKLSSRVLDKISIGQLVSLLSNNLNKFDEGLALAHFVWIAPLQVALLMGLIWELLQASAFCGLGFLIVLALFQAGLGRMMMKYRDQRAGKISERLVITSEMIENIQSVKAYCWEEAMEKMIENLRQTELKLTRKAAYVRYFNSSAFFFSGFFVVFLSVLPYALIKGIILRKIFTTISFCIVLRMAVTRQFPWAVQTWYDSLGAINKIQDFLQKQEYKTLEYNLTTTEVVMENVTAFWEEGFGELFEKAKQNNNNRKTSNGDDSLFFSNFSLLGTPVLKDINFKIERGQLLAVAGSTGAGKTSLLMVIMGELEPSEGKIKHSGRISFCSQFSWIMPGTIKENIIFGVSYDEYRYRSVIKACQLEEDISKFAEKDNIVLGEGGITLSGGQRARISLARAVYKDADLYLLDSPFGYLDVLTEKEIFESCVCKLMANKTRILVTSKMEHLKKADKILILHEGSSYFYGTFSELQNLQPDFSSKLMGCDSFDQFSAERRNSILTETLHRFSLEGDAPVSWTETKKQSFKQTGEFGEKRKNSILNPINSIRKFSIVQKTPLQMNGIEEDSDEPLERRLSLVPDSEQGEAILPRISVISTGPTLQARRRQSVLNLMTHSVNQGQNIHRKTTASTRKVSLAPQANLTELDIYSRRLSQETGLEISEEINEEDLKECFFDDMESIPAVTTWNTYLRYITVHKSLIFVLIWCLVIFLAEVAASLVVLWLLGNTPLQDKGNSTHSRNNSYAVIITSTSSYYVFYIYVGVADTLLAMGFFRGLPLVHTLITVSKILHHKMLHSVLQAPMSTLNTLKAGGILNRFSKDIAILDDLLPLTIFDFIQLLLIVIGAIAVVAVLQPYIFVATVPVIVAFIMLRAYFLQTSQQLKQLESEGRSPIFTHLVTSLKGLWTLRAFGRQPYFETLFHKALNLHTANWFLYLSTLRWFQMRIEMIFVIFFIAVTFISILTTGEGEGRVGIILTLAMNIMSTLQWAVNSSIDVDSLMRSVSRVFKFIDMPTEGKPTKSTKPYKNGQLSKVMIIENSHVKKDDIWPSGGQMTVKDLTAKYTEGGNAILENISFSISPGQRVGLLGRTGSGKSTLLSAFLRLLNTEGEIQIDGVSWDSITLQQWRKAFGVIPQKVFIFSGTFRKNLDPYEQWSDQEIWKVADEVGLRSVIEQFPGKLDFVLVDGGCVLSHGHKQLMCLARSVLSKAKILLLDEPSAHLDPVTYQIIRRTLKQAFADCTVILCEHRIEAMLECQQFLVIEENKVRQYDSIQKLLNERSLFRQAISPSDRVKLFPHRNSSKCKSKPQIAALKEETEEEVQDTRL
Summary of the method: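 Human intestinal enteroid cells incubated with compound 18–24 h at 37° C., then membrane potential dye (FLIPR) read 15 min after chloride-free stimulation with 10 μM forskolin, 100 μM IBMX and 300 nM Compound III. AUC expressed as % of triple-combination control (3 μM Compound A, 3 μM Compound II, 300 nM Compound III).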

| Structure (SMILES) | ring closure, isolated yield ([1]; from CC(C)(C)OC(=O)N1C[C@@H](CCCNc2cccc(S(=O)(=O)NC(=O)c3ccc(-n4ccc(OCCC(O[Si](C)(C)C(C)(C)C)C5(C(F)(F)F)CC5)n4)nc3Cl)n2)CC1(C)C, 15-membered ring, K2CO3/CsF/3A MS, DMSO, 41.7 mM, 150.0 °C, 2 steps) | EC50 [2] | Max. Activity [2] | ring closure, isolated yield ([1]; from CC(C)(C)OC(=O)N1C(CCNc2cccc(S(=O)(=O)NC(=O)c3ccc(-n4ccc(OCCC5(C(F)(F)F)CC5)n4)nc3Cl)n2)CCC1(C)C, 13-membered ring, TFA (Boc off), CsF/K2CO3/3A MS, DMSO, 84.6 mM, 130.0 °C, 2 steps) | ring closure, isolated yield ([1]; from CC1(C)CC(CCCNc2cccc(S(=O)(=O)NC(=O)c3ccc(-n4ccc(OCC5(C(F)(F)F)CC5)n4)nc3Cl)n2)CN1, 15-membered ring, K2CO3/CsF/3A MS, DMSO, 43.8 mM, 150.0 °C, 16.0 h, 2 steps) | ring closure, isolated yield ([1]; from 2-chloro-N-[[6-[3-[(3S)-5,5-dimethylpyrrolidin-3-yl]propylamino]-2-pyridyl]sulfonyl]-6-[3-[3-[1-(trifluoromethyl)cyclopropyl]propoxy]pyrazol-1-yl]pyridine-3-carboxamide (dihydrochloride salt), 15-membered ring, K2CO3/CsF, NMP, 83.9 mM, 150.0 °C) |
| --- | --- | --- | --- | --- | --- | --- |
| CC1(C)C[C@@H]2CCCNc3cccc(n3)S(=O)(=O)NC(=O)c3ccc(-n4ccc(OCCC(O)C5(C(F)(F)F)CC5)n4)nc3N1C2 (stereo partly drawn) [Compound 295, (14S)-8-(3-{3-hydroxy-3-[1-(trifluoromethyl)cyclopropyl]propoxy}-1H-pyrazol-1-yl)-12,12-dimethyl-2λ^6-thia-3,9,11,18,23-pentaazatetracyclo[17.3.1.111,14.05,10]tetracosa-1(22),5,7,9,19(23),20-hexaene-2,2,4-trione] | 46% | < 1000 nM | ++ (++ is 30-60%) |  |  |  |
| CC1(C)CCC2CCNc3cccc(n3)S(=O)(=O)NC(=O)c3ccc(-n4ccc(OCCC5(C(F)(F)F)CC5)n4)nc3N21 (racemic) [Compound 108, 8,8-Dimethyl-12-(3-{2-[1-(trifluoromethyl)cyclopropyl]ethoxy}-1H-pyrazol-1-yl)-18λ^6-thia-2,9,11,17,23-pentaazatetracyclo[17.3.1.05,9.010,15]tricosa-1(23),10(15),11,13,19,21-hexaene-16,18,18-trione] |  | < 1000 nM | ++ (++ is 30-60%) | 55% |  |  |
| CC1(C)CC2CCCNc3cccc(n3)S(=O)(=O)NC(=O)c3ccc(-n4ccc(OCC5(C(F)(F)F)CC5)n4)nc3N1C2 (racemic) [Compound 15, 12,12-dimethyl-8-(3-{[1-(trifluoromethyl)cyclopropyl]methoxy}-1H-pyrazol-1-yl)-2λ^6-thia-3,9,11,18,23-pentaazatetracyclo[17.3.1.111,14.05,10]tetracosa-1(23),5(10),6,8,19,21-hexaene-2,2,4-trione] |  | < 1000 nM | +++ (+++ is >60%) |  | 54% |  |
| CC1(C)C[C@@H]2CCCNc3cccc(n3)S(=O)(=O)NC(=O)c3ccc(-n4ccc(OCCCC5(C(F)(F)F)CC5)n4)nc3N1C2 [Compound 161, (14S)-12,12-dimethyl-8-(3-{3-[1-(trifluoromethyl)cyclopropyl]propoxy}-1H-pyrazol-1-yl)-2λ^6-thia-3,9,11,18,23-pentaazatetracyclo[17.3.1.111,14.05,10]tetracosa-1(22),5,7,9,19(23),20-hexaene-2,2,4-trione] |  | < 1000 nM | +++ (+++ is >60%) |  |  | 55% |
